Experimental data as given in patent US20250122225A1, “MASP-2 INHIBITORS AND METHODS OF USE” (Omeros Corporation, priority 2023, published 2025).
Structures can show the parent of a compound that is named as a salt.

Key:
Type in all cases: biochemical
MASP-2 (CCP1-CCP2-SP) = target: T1, MASP-2 (CCP1-CCP2-SP) (Homo sapiens, UniProt O00187); assay: Enzymatic assay for MASP-2 inhibitory activity (fluorogenic substrate)
T1 construct: 15 μL of Enzyme MASP-2 (CCP1-CCP2-SP) in Assay Buffer
Procedure, shortened: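 Fluorescence was normalized between no-enzyme and DMSO-only controls to derive % activity, with IC50 taken as equivalent to Ki except for tight-binding inhibitors. Reactions ran 20 min at room temperature in HEPES pH 7.4/NaCl/Tween 20 buffer, using the C2-derived fluorogenic substrate, before acetic acid stop.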

human α-thrombin = target: T2, human α-thrombin (Homo sapiens, UniProt P00734); assay: Enzymatic assay for thrombin (fluorogenic peptide substrate Boc-VPR-AMC)
T2 construct: enzyme (human α-thrombin (BioPharm® Lab.)) in assay buffer; purchased BioPharm® Lab
Procedure, shortened: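 Assay conditions kept the reaction linear in time, enzyme and substrate, so IC50 approximated Ki apart from tight- or slow-binding cases. Boc-VPR-AMC cleavage by human α-thrombin proceeded 20 min at room temperature in Hepes pH 7.4/NaCl/Tween 20 buffer, then was acid-quenched and read by fluorescence.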

[1] = system: Lectin Pathway Activation in human serum; assay: Lectin Pathway Activation (LPA) assay in human serum, mannan-coated ELISA plate, C4c detection; conditions: 1% human serum, read-out: LPA Functional Activity (IC50)
Description: Lectin Pathway Activation (LPA) Assay in Human Serum Treated with Compounds
A microtiter ELISA plate was coated with mannan (1 mg/ml) from Saccharomyces cerevisiae (Sigma-Aldrich®, M7504) overnight at 4° C. in coating buffer [33.3 mM Na2CO3, 166.67 mM NaHCO3]. The plate was blocked with 5% bovine serum albumin (BSA) (Sigma-Aldrich®, A3294) in 1×PBST [Phosphate Buffered Saline Solution (1.06 mM KH2PO4, 155.2 mM NaCl, 2.97 mM Na2HPO4^−·7H2O, pH 7.4), 0.05% Tween-20] shaking for 2 hours at room temperature. 1% human serum was incubated with serial dilutions of small compounds in 1× LPA+ Buffer [20 mM Hepes, pH 7.4, 140 mM NaCl, 2 mM MgCl2 (6H2O)] and incubated for 5 minutes at room temperature. 40 μL of this mixture was then added to the plate, and the plate was incubated at room temperature for 55 mins. Next, the reaction was stopped by adding 20 μL of EDTA Stop Solution [20 mM Hepes, pH7.4, 140 mM NaCl, 150 mM EDTA] to the plate. The plate was then washed 10× in wash buffer 1×PBST; 40 μL of Rabbit Anti Human C4c Antibody [Dako®, Q0369] diluted 1:20000 in wash buffer was added; and the plate was incubated shaking at room temperature for 30 minutes. The plate was washed [5× times]; 40 μL of Goat Anti-rabbit Antibody-HRP Conjugate [Southern Biotech®, 4050-05] diluted 1:10000 in wash buffer was added; and the plate was incubated shaking at room temperature for 30 minutes. After that, the plate was washed five times; 40 µL/well of Amplex® UltraRed Substrate Solution [1× LPA Buffer, 10 mM Amplex® UltraRed Stock Solution [Thermo Fisher Sci.®, A36006], 3% stabilized hydrogen peroxide [Sigma Aldrich®, 216763] was added; the plate was incubated at room temperature for 16 minutes; the reaction was stopped by adding 8 µL/well of Amplex® UltraRed Stop Solution [Thermo Fisher Sci.®, A33855] in 100% EtOH. Finally, the plate was read for fluorescence at Ex: 550 nm, Em: 580 nm on the i3x Microplate Reader.

T1 sequence (O00187 445-686 limits assumed): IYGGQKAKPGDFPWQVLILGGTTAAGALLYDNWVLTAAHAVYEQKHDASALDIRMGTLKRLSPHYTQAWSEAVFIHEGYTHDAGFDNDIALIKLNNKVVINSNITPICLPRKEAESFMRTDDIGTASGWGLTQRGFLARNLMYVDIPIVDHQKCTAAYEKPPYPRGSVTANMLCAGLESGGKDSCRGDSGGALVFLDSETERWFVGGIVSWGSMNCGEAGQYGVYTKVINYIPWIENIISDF
T1 sequence (O00187 287-444 partner limits assumed): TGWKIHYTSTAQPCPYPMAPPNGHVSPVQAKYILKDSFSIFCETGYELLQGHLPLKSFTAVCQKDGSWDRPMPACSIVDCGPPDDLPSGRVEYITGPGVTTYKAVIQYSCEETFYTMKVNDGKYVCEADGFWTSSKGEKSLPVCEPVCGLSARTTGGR

SMILES	Ki (MASP-2 (CCP1-CCP2-SP)) [nM]	Ki (human α-thrombin) [nM]	IC50 [1] [nM]
O=C(NCc1cc2c(s1)CNC2)[C@@H]1CCc2cnc(N[C@@H](c3ccccc3)C3CC3)c(=O)n21 [Compound 259, (S)-3-(((R)-cyclopropyl(phenyl)methyl)amino)-N-((5,6-dihydro-4H-thieno[2,3-c]pyrrol-2-yl)methyl)-4-oxo-4,6,7,8-tetrahydropyrrolo[1,2-a]pyrazine-6-carboxamide trifluoroacetate]	< 500	< 500	< 50
C[C@@H](CNc1ncc2n(c1=O)[C@H](C(=O)NCc1cc3c(s1)CNC3)CC2)c1ccccc1 [Compound 276, (S)-N-((5,6-dihydro-4H-thieno[2,3-c]pyrrol-2-yl)methyl)-4-oxo-3-(((R)-2-phenylpropyl)amino)-4,6,7,8-tetrahydropyrrolo[1,2-a]pyrazine-6-carboxamide trifluoroacetate]	< 500	< 500	< 50
CC[C@@H](Nc1ncc2n(c1=O)[C@H](C(=O)N[C@H](C)c1cc3c(s1)CNC3)CC2)c1ccccc1 [Compound 277]	< 500	500 to 2500	50 to 500
